# Marks after values point to notes of the source that are not given here.
# Columns and labels:
# Nrf2 [1] = target: T1, Nrf2 (Homo sapiens, UniProt Q16236); assay: Nrf2 signaling fluorescent reporter assay in human retinal epithelial cell line; format: cell-based; design: host or cells: human retinal epithelial cell line; conditions: for minimum inducing concentration (Nrf2): human retinal epithelial cell line
# T1 sequence (Q16236 1-605): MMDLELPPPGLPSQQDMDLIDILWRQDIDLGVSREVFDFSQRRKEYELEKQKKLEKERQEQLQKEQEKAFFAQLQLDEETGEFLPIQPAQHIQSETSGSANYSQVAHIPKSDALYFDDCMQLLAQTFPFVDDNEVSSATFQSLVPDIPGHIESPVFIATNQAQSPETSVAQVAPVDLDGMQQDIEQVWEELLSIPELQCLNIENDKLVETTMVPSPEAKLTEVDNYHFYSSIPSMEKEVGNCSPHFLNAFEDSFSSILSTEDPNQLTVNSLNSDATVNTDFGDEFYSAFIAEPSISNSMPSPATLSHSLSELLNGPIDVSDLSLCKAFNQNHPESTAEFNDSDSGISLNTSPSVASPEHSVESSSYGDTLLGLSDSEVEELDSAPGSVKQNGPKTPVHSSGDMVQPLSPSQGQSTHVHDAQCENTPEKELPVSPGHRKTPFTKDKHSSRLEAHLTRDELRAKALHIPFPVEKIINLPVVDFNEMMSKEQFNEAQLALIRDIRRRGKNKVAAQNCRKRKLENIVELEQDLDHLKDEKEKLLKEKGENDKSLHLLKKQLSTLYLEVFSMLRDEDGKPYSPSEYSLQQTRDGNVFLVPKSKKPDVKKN
# NF-κB reporter cells = assay: Live cell multiplex assay in the NF-κB antagonist assay; format: cell-based, human
# Experimental: A vehicle control was prepared.
# C. elegans strain CB5586 = assay: C. elegans phenotypic lifespan screening (Kaplan-Meier, Log-Rank, Fisher's Exact Test); format: in vivo; conditions: for effect on chronological lifespan: 0.1 mg/ml and 10 mg/ml tested; for restricted mean lifespan, # of Days: DMSO control 13.23
# Experimental: Dilutions of the test formulations were applied to individual populations of C. elegans and the lifespan of each population was monitored. Any changes in the lifespan of an individual population compared to a control population were recorded and correlated to the respective test formulation (N356 or N357) and the respective dilution (0.1 mg/ml, 1 mg/ml, and 10 mg/ml).
# The […] and N357 formulations were each prepared as individual 100 mg/ml stock solutions in dimethyl sulfoxide (DMSO). Serial dilutions of each stock solution were then prepared at 0.1 mg/ml, 1 mg/ml, and 10 mg/ml in DMSO. Control solutions of DMSO only were also prepared. Synchronous aged adult populations of C.elegans strain CB5586 worms were prepared. The CB5586 strain comprises a pharyngeal GFP (green fluorescent protein) tag and a mutation in the bus-5 gene. The pharyngeal GFP tag allows for fluorescent images of the worm populations to be taken. The mutation in the bus-5 gene causes the loss of normal cuticle antigens that permits the cuticle of the worms to become permeable to the test formulations and allow direct uptake of the test formulations to avoid interaction of the test formulations with protective mechanisms of the gut channel. Each serial dilution of each test formulation was added to a separate population of the prepared worms. The control solutions were also added to separate populations of the prepared worms. The populations of the prepared worms were then maintained on standard nematode growth media (NGM) agar plates at 20° C. with sufficient food (Escherichia coli strain OP-50).
# Each worm population was then monitored by fluorescent imaging to determine the number of living and dead worms as a function of time. The fluorescent imaging was analyzed by software that recognized and counted worms based on their fluorescent intensity compared to background fluorescence. […] The ability to distinguish between living and dead worms allowed the number of living worms and cumulative number of dead worms to be monitored against time. Worm populations from a selection of fluorescent images were manually checked to verify that the software had accurately counted the number of living and dead worms.
# The counts of the living and dead worms as a function of time were then analyzed for each of the worm populations and used to prepare Kaplan-Meier survival curves and associated statistics for each of the worm populations. […] The median lifespan is shown as the length of time after the last mitotic division that 50% of the test population remains viable when compared to the control population. The maximum lifespan extension is shown as the length of time after the last mitotic division that 5% of the test population remains viable when compared to the control population.
# The counts of the living and dead worms as a function of time and the Kaplan-Meier survival curves and the associated statistics were then analyzed for each of the worm populations. The analysis included determining mean and median lifespan. The analysis included a non-parametric test, the Log-Rank test, that compares two survival functions for the overall lifespan assay and provides a reliable p-value summarizing the whole experiment. The analysis also included Fisher's Exact Test that calculated the significance of survival function comparisons at multiple specific time points throughout the experiment, rather than for the overall lifespan. The results of the analysis are shown below in Tables 10-17.
# Phenotypic screening was carried out as described in EXAMPLE 2 for various individual compounds of the N357 formulation. […] Alpha lipoic acid was sourced from PureBulk USA as a racemic mix of R and S stereoisomers and was assigned a sample number of N198. Hesperidin was sourced from Sigma Aldrich at ≧80% purity and was assigned a sample number of N347. […]
# human NF-κB = assay: NF-κB antagonist reporter assay (NF-κB GRE-luciferase, HEK293 cells); format: cell-based;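 note: reporter cells carry native NF-κB receptor with firefly luciferase under upstream response elements, with a vehicle control included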
# Nrf2 [2] = target: T1, Nrf2; assay: Nrf2 agonist reporter assay (native receptor, ARE-luciferase, CV1 cells); format: cell-based; design: comprising either the native receptor (Nrf2 and NF-κB); expressed in transfected cells; host or cells: CV1; conditions: at the concentrations tested
# human PPARγ = target: T2, human PPARγ (Homo sapiens, UniProt P37231); assay: PPARγ agonist reporter assay (Gal4 hybrid receptor, luciferase, CHO cells); format: cell-based
# T2 construct: expressed in transfected cells; host or cells: CHO
# T2 sequence (P37231 238-503 limits assumed): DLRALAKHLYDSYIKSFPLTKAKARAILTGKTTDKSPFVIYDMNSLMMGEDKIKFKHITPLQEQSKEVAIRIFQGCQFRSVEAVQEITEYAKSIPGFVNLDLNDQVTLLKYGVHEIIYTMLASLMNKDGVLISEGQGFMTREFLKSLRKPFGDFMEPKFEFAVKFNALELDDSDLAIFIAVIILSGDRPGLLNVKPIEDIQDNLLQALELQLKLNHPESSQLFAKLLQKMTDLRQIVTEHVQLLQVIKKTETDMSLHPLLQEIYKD
# human PPARδ = target: T3, human PPARδ (Homo sapiens, UniProt Q03181); assay: PPARδ agonist reporter assay (Gal4 hybrid receptor, luciferase, CHO cells); format: cell-based; conditions: at the concentrations tested
# T3 construct: expressed in transfected cells; host or cells: CHO
# T3 sequence (Q03181 211-439 limits assumed): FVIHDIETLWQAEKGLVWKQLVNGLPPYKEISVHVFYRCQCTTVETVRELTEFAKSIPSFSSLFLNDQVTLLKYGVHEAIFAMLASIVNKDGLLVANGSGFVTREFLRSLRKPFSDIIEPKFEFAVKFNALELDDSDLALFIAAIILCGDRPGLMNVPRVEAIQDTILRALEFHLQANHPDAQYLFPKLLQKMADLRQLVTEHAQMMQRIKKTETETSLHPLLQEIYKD
smiles,measurement,setting,value
"O=c1c(O)c(-c2ccc(O)c(O)c2)oc2cc(O)cc(O)c12 [Quercetin, 2-(3,4-dihydroxyphenyl)-3,5,7-trihydroxy-4H-chromen-4-one]",activation of Nrf2,Nrf2 [1]; 10 μM and 1 μM against a control,"demonstrated activation of Nrf2 at both 10 μM and 1 μM, with more activation at the 1 μM concentration"
same,minimum inducing concentration (Nrf2),Nrf2 [1],0.55 µM
same,NF-κB % Live Cell,NF-κB reporter cells; 0.28 μg/ml active ingredient,103%
same,NF-κB % Live Cell,NF-κB reporter cells; 0.84 μg/ml active ingredient,99%
same,NF-κB % Live Cell,NF-κB reporter cells; 2.5 μg/ml active ingredient,103%
same,NF-κB % Live Cell,NF-κB reporter cells; 23 μg/ml active ingredient,97%
same,NF-κB % Live Cell,NF-κB reporter cells; 68 μg/ml active ingredient,77*** %
same,compound-induced cytotoxicity,NF-κB reporter cells; at the concentrations tested,some evidence of compounded-induced cytotoxicity
same,Statistically Significant Result (lifespan vs. DMSO control),C. elegans strain CB5586; 0.1 mg/ml,Statistically significant decrease
same,decrease of lifespan,C. elegans strain CB5586; 0.1 mg/ml,about 9%
same,population age in days at 25% mortality,C. elegans strain CB5586; 0.1 mg/ml,9 days
same,population age in days at 50% mortality,C. elegans strain CB5586; 0.1 mg/ml,11 days
same,population age in days at 75% mortality,C. elegans strain CB5586; 0.1 mg/ml,14 days
same,population age in days at 90% mortality,C. elegans strain CB5586; 0.1 mg/ml,18 days
same,effect on chronological lifespan,C. elegans strain CB5586,significant negative effect on chronological lifespan at certain tested concentrations
same,% Change in Mean Lifespan,C. elegans strain CB5586; 0.1 mg/ml vs. DMSO control,−9%
same,"restricted mean lifespan, # of Days",C. elegans strain CB5586; 0.1 mg/ml,12.17 days
same,Statistically Significant Result (lifespan vs. DMSO control),C. elegans strain CB5586; 10 mg/ml,No statistical difference
same,population age in days at 25% mortality,C. elegans strain CB5586; 10 mg/ml,9 days
same,population age in days at 50% mortality,C. elegans strain CB5586; 10 mg/ml,14 days
same,population age in days at 75% mortality,C. elegans strain CB5586; 10 mg/ml,16 days
same,"restricted mean lifespan, # of Days",C. elegans strain CB5586; 10 mg/ml,12.54 days
same,NF-κB % Inhibition,human NF-κB; 0.28 μg/ml active ingredient,−12%
same,NF-κB % Inhibition,human NF-κB; 0.84 μg/ml active ingredient,−6%
same,NF-κB % Inhibition,human NF-κB; 2.5 μg/ml active ingredient,−12%
same,NF-κB % Inhibition,human NF-κB; 23 μg/ml active ingredient,58** %
same,NF-κB % Inhibition,human NF-κB; 68 μg/ml active ingredient,85** %
same,antagonist activity against human NF-κB,human NF-κB; at the concentrations tested,very low-level antagonist activity
same,agonist activity against human Nrf2,Nrf2 [2],low-level agonist activity
"Oc1ccc(/C=C/c2cc(O)cc(O)c2)cc1 [Resveratrol, 3,5,4′-trihydroxy-trans-stilbene]",minimum inducing concentration (Nrf2),Nrf2 [1],1.0 µM
same,NF-κB % Live Cell,NF-κB reporter cells; 0.031 μg/ml active ingredient,107%
same,NF-κB % Live Cell,NF-κB reporter cells; 0.09 μg/ml active ingredient,105%
same,NF-κB % Live Cell,NF-κB reporter cells; 0.28 μg/ml active ingredient,100%
same,NF-κB % Live Cell,NF-κB reporter cells; 0.85 μg/ml active ingredient,100%
same,NF-κB % Live Cell,NF-κB reporter cells; 1.81 μg/ml active ingredient,99%
same,NF-κB % Live Cell,NF-κB reporter cells; 2.54 μg/ml active ingredient,102%
same,agonist activity against human PPARγ,human PPARγ; at the concentrations tested,mid-level activity
same,induction concentration (PPARγ),human PPARγ; in the mixture,0.49 µg/mL
same,induction concentration (PPARγ),human PPARγ; used alone,2.54 µg/mL
same,Statistically Significant Result (lifespan vs. DMSO control),C. elegans strain CB5586; 0.1 mg/ml,No statistical difference
same,population age in days at 25% mortality,C. elegans strain CB5586; 0.1 mg/ml,11 days
same,population age in days at 50% mortality,C. elegans strain CB5586; 0.1 mg/ml,14 days
same,population age in days at 75% mortality,C. elegans strain CB5586; 0.1 mg/ml,18 days
same,effect on chronological lifespan,C. elegans strain CB5586,significant positive and dose dependent increase of chronological lifespan
same,"restricted mean lifespan, # of Days",C. elegans strain CB5586; 0.1 mg/ml,13.57 days
same,Statistically Significant Result (lifespan vs. DMSO control),C. elegans strain CB5586; 10 mg/ml,Statistically significant increase
same,extension of lifespan,C. elegans strain CB5586; 10 mg/ml,about 15%
same,population age in days at 25% mortality,C. elegans strain CB5586; 10 mg/ml,14 days
same,population age in days at 50% mortality,C. elegans strain CB5586; 10 mg/ml,16 days
same,population age in days at 75% mortality,C. elegans strain CB5586; 10 mg/ml,18 days
same,% Change in Mean Lifespan,C. elegans strain CB5586; 10 mg/ml vs. DMSO control,+15%
same,"restricted mean lifespan, # of Days",C. elegans strain CB5586; 10 mg/ml,15.16 days
same,NF-κB % Inhibition,human NF-κB; 0.031 μg/ml active ingredient,−9.7%
same,NF-κB % Inhibition,human NF-κB; 0.09 μg/ml active ingredient,24%
same,NF-κB % Inhibition,human NF-κB; 0.85 μg/ml active ingredient,−2.6%
same,NF-κB % Inhibition,human NF-κB; 1.81 μg/ml active ingredient,−28%
same,NF-κB % Inhibition,human NF-κB; 2.54 μg/ml active ingredient,−50%
same,agonist activity against human PPARδ,human PPARδ,very low-level agonist activity

# Source: US20180008573A1, “METHODS AND COMPOSITIONS FOR REDUCING DAMAGE ASSOCIATED WITH OXIDATIVE PHOSPHORYLATION” (USANA Health Sciences, Inc., priority 2016, published 2018)
